≈ marks a conversion by molar mass, not a printed value. Calls of active or inactive are those of the source. The rule behind the calls is not given here.
Tests used:
P388 [1] = assay: Cytotoxicity against mouse P388 cells; format: functional; conditions: read-out: ED50 (the source's name)
P388 [2] = assay: In vivo antitumor activity against mouse P388 cells at 5 to 200 mg/kg; format: functional, organism-based
P388 [3] = assay: In vivo antitumor activity against mouse P388 cells at 1.25 to 10 mg/kg; format: functional, organism-based
P388 [4] = assay: In vivo antitumor activity against mouse P388 cells at 20 mg/kg; format: functional
P388 [5] = assay: In vivo antitumor activity against mouse P388 cells at 10 mg/kg; format: functional
P388 [6] = assay: In vivo antitumor activity against mouse P388 cells at 75 mg/kg; format: functional

`CC(=O)O[C@@H]1CC=C2CCN3Cc4cc5c(cc4[C@H]1[C@@H]23)OCO5` [ACETYLCARANINE] was tested, and the EC50 (P388 [1]) was 0.23 µg/mL (≈ 0.734 µM) and the Activity (P388 [2]) was “inactive”.

In the case of `COc1c2c(cc3c1OCO3)[C@]13C=C[C@H](OC)C[C@H]1N(C2)C[C@@H]3O` [AMBELLINE], the Activity (P388 [3]) is reported as “inactive” and the EC50 (P388 [1]) is reported as 1.6 µg/mL (≈ 4.83 µM).

In the case of `[Cl-].c1cc2c3c(c1)c1cc4c(cc1c[n+]3CC2)OCO4` [ANHYDROLYCORINIUM CHLORIDE], the T/C (P388 [4]) is reported as 169% and the T/C (P388 [5]) is reported as 164%.

`O[C@H]1[C@H]2c3cc4c(cc3CN3CCC(=C[C@@H]1O)[C@H]23)OCO4` [LYCORINE] gave a T/C (P388 [6]) of 135%.
